Source: US7858658B2, “Fluoro- and trifluoroalkyl-containing heterocyclic sulfonamide inhibitors of beta amyloid production and derivatives thereof” (Wyeth LLC, priority 2003, dated 2010)
Values joined by “and” are separate entries in the source; they are usually repeats but may differ in a detail not shown here. Equal values may be shown once.

Legend:
[1] = tested on: amyloid precursor protein (APP) proteolysis; assay: Repressor Release Assay (RRA); type: cell-based; conditions: all compounds tested at 20 μg/mL; for fold induction at 20 µg/mL: read-out: RRA data: fold increase of APPI (luciferase activity over diluent control)
Procedure: The beta amyloid inhibitory activity of many of the compounds of the present invention has been determined using the Repressor Release Assay (RRA). See, Table 5 below. A compound is considered active in RRA if it leads to at least a 1.5 fold increase in luciferase activity at 20 μg/mL and is non-toxic.
The compounds generated as described in the Examples above are tested in the RRA in accordance with published techniques [Shuey, D. J., Sheiffele, P., Jones, D., Cockett, M. I., and Quinet, E. M. (1999), “Repressor release: a useful tool for monitoring amyloid precursor protein (APP) proteolysis in mammalian cells”, Society for Neuroscience Abstracts, Vol. 25, 29th Annual Meeting of Society for Neuroscience, Miami Beach, Fla., Oct. 23-28, 1999]. Briefly, this assay is performed as follows.
CHO-K1 cells are cultured in whole DMEM media (DMEM—High Glucose with 10% fetal bovine serum, 1% Non-essential Amino Acids, and 1% Penicillin-Streptomycin) at 37° C. with 5% CO2. Two million cells are plated into 10-cm dishes 24 hrs prior to transfection.
Transient transfections are completed as recommended by Gibco BRL using their Lipofectamine Plus® system. First, 6 μg of pRSVO-luc and 6 μg of APP-lacI construct DNA are added to 460 μL Opti-Mem transfection media and incubated with the 30 μL Plus® reagent for 15 minutes. Then, a lipid mixture of 40 μL Lipofectamine Plus® reagent and 460 μL Opti-Mem transfection media is incubated with the DNA-Plus reagent mixture for 15 minutes. During the DNA-lipid incubation, the CHO-K1 cells are washed once and covered in 5.0 mL DMEM media without Penicillin-Streptomycin. The DNA-lipid preparation is then layered onto these cells and incubated at 37° C. overnight.
One and one half million transfected cells per well (100 μL total volume) are plated into sterile, opaque Packard 96-well Cultur-Plates™ in clear DMEM whole media (DMEM—without phenol red) and incubated at 37° C. with 5% CO2 for 3-5 hours.
Compounds are diluted using two different protocols; one protocol is used for compounds supplied neat (weighed powder in vial) and the other protocol is used for compounds supplied in solution (20 mM in DMSO in 96-well plates). For both protocols, 25 mM Hepes and 25 mM Hepes/1% DMSO are prepared fresh to be used as diluent. The Hepes/DMSO is used as the diluent control on all experimental plates.
The following table depicts the steps for compound dilution (please note that the last step is the addition of compound to cells/media in tissue culture plate):
Because some compounds arrive in 96-well format at 20 mM, the following represents the protocol for their dilution (note that an average molecular weight of these compounds was used to calculate these dilutions and as above, the last step is the addition of compound to cells/media in tissue culture plate):
Once compounds are diluted, they are applied in duplicate on cells in tissue culture plates (prepared above). Cells are incubated with compound at 37° C. with 5% CO2 for an additional 36-48 hours.
Luciferase assays (the LucLite® reagent, Packard) are performed and are read on a Packard TopCount® instrument. Media is removed from each 96-well plate and replaced with 100 μL PBS per well (with Mg^2+ and Ca^2+). An equal volume (100 μL) of the LucLite® lysis/substrate buffer is added to each well and the plates are sealed and mixed in the dark on a rotary shaker for about 15 to about 30 minutes at room temperature. Luciferase readings are then taken on the TopCount® instrument. Measurements are expressed as relative light units (RLU) and are calculated and analyzed in the MS Excel® program as follows.
A compound is considered active in RRA if it leads to at least a 1.5 fold increase in luciferase activity at 20 μg/mL and is non-toxic, as determined by loss of signal (≦0.75 fold increase). Fold increase is the amount of luciferase activity (measured in relative light units) over diluent control. SEM represents the standard error of the mean for fold increase (not shown).

[2] = tested on: beta amyloid 40; assay: Aβ40/42 ELISA Assay, Aβ40; type: cell-based; conditions: CHO cells carrying the APP-REP-NL plasmid, 22 hours
Procedure: (§1) Compounds are diluted from DMSO stocks to 2 μM and below in a cell culture medium. Compounds are then applied to CHO cells carrying the APP-REP-NL plasmid [Sudhir et. al, J. Biolog. Chem. 267:25602-25608 (1992)] for a period of 22 hours. After the conditioning period, medium is collected, diluted in assay buffer containing protein, and samples, controls, and synthetic peptide standards are incubated on a prepared ELISA plate. Using a sandwich ELISA with antibodies specifically directed against the carboxyl terminus of beta amyloid 40 or 42 [analogous to the method reported by Haugabook et al., J. Neurosci. Methods 108:171-179 (2001) but using goat anti-mouse IgG1 (source: Southern Biotech) as the anchor, 6E10 as the capture antibody (Source: SENETEK), rabbit antiAβ40 and antiAβ42 (source: QCB) and APL-donkey anti-rabbit IgG (H+L, source: Southern Biotech) as the detection antibody], the effect of the compound treatment on the cellular production of extracellular beta amyloid is quantified. Cells treated with compound are subsequently incubated in cell culture medium containing […]. After a short incubation period, MTS/medium containing plates are read in a spectrophotometer to determine the extent to which compound toxicity affected the cell's metabolism and ability to synthesize beta amyloid. […]

[3] = tested on: beta amyloid 42; assay: Aβ40/42 ELISA Assay, Aβ42; type: cell-based; conditions: CHO cells carrying the APP-REP-NL plasmid, 22 hours
Procedure: as §1

[4] = Phase 1 and 2 rat liver microsome metabolism; type: in vitro ADME; conditions: liver microsomes, read-out: half-life (metabolic stability)
[5] = Phase 1 and 2 mouse liver microsome metabolism; type: in vitro ADME; conditions: liver microsomes, read-out: half-life (metabolic stability)
[6] = Phase 1 and 2 human liver microsome metabolism; type: in vitro ADME; conditions: liver microsomes, read-out: half-life (metabolic stability)
[7] = Phase 1 and 2 dog liver microsome metabolism; type: in vitro ADME; conditions: liver microsomes, read-out: half-life (metabolic stability)
[8] = in vitro; conditions: rat, microsomes
[9] = mouse, microsomes

Row | RRA data: fold increase of APPI (luciferase activity over diluent control) [1] | SMILES | fold induction at 20 µg/mL [1] | further results
1 | 18.5-28.1 fold increase | C[C@H](NC(=O)Cc1cc(F)cc(F)c1)C(=O)N[C@H](C(=O)OC(C)(C)C)c1ccccc1 [DAPT] | – | EC50 [2]: 171 nM; EC50 [3]: 128 nM
2 | – | C[C@H](CC(F)(F)F)[C@@H](CO)NS(=O)(=O)c1ccc(Cl)s1 [Example 1, 5-Chloro-N-[(1S,2R)-4,4,4-trifluoro-1-(hydroxymethyl)-2-methylbutyl]thiophene-2-sulfonamide] | 3.2 | half-life [4]: 14 min; half-life [5]: 10 min; half-life [6]: 22 min; half-life [7]: 31 min; melting point: 132 to 133 °C and 136 to 137 °C; half-life [8]: ~193 min
3 | – | CC[C@H](CC(F)(F)F)[C@@H](CO)NS(=O)(=O)c1ccc(Cl)s1 [Example 2, 5-Chloro-N-[(1S,2R)-2-ethyl-4,4,4-trifluoro-1-(hydroxymethyl)butyl]thiophene-2-sulfonamide] | 5.4 | melting point: 128 to 129 °C
4 | 4.3 fold increase | CC[C@H](CC(F)(F)F)[C@H](NS(=O)(=O)c1ccc(Cl)s1)C(C)O (stereo partly drawn) [Example 3, 5′-Chloro-N-[(1S,2R)-2-ethyl, 4,4,4-trifluoro-1-(1-hydroxyethyl)butyl]thiophene-2′-sulfonamide] | – | –
5 | 3.8 fold increase | O=S(=O)(N[C@H](CO)C(C(F)(F)F)C(F)(F)F)c1ccc(Cl)s1 [Example 5, 5′-Chloro-N-[3,3,3-trifluoro-2-(trifluoromethyl)-1-S-(hydroxymethyl)propyl]thiophene-2′-sulfonamide] | – | half-life (metabolic stability) [9]: 46 min
6 | – | CC[C@@H](CC(F)(F)F)[C@H](CO)NS(=O)(=O)c1ccc(Cl)s1 [Example 6, 5-Chloro-N-[(1R,2S)-2-ethyl-4,4,4-trifluoro-1-(hydroxymethyl)butyl]thiophene-2-sulfonamide] | 4.2 | –
7 | – | O=S(=O)(NC(CO)CCC(F)(F)F)c1ccc(Cl)s1 (stereo not shown) [Example 7, 5-Chloro-N-[4,4,4-trifluoro-1-(hydroxymethyl)butyl]thiophene-2-sulfonamide] | 3.9 | –
8 | – | C[C@H](O)[C@@H](NS(=O)(=O)c1ccc(Cl)s1)[C@H](C)CC(F)(F)F [Example 8, 5-Chloro-N-{(1S,2R)-4,4,4-trifluoro-1-[(1S)-1-hydroxyethyl]-2-methylbutyl}thiophene-2-sulfonamide] | 2.8 | –
9 | – | C[C@H](CC(F)(F)F)[C@H](NS(=O)(=O)c1ccc(Cl)s1)[C@@H](C)O [Example 9, 5-Chloro-N-{(1S,2R)-4,4,4-trifluoro-1-[(1R)-1-hydroxyethyl]-2-methylbutyl}thiophene-2-sulfonamide] | 2.8 | –
10 | – | C[C@@H](CC(F)(F)F)[C@@H](CO)NS(=O)(=O)c1ccc(Cl)s1 [Example 10, 5-Chloro-N-[(1S,2S)-4,4,4-trifluoro-1-(hydroxymethyl)-2-methylbutyl]thiophene-2-sulfonamide] | 5.2 | melting point: 99 to 100 °C
11 | 4.2 fold increase | CC[C@@H](CC(F)(F)F)[C@@H](CO)NS(=O)(=O)c1sc2ccc(Cl)cc2c1C [Example 11, (2S,3S)-2-(5-Chloro-3-methylbenzo[b]thiophene-2-sulfonyl)-amido-5,5,5-trifluoro-3-ethyl-pentan-1-ol] | – | –
12 | 1.6 fold increase | Cc1nn(C)c(Cl)c1S(=O)(=O)N[C@H](CO)[C@H](CC(F)(F)F)c1ccccc1 [Example 12, (2S,3R)-2-(5-Chloro-1,3-dimethyl-1H-pyrazole-4-sulfonyl)-amido-5,5,5-trifluoro-3-phenyl-pentan-1-ol] | – | –
13 | – | O=S(=O)(NC(CO)C1CCC(F)(F)CC1)c1ccc(Cl)s1 (stereo not shown) [Example 14, 5-Chloro-N-[1-(4,4-difluorocyclohexyl)-2-hydroxyethyl]thiophene-2-sulfonamide] | 6.2 | –
14 | – | O=S(=O)(NC(CO)C1CC2C(C1)C2(F)F)c1ccc(Cl)s1 (stereo not shown) [Example 15, 5-Chloro-N-[1-(6,6-difluorobicyclo[3.1.0]hex-3-yl)-2-hydroxyethyl]thiophene-2-sulfonamide] | 4.7 | –
15 | – | C[C@H](CC(F)(F)F)[C@@H](C=O)NS(=O)(=O)c1ccc(Cl)s1 [Example 16, 5-Chloro-N-[(1S,2R)-4,4,4-trifluoro-1-formyl-2-methylbutyl]thiophene-2-sulfonamide] | 3.9 | –
16 | – | CC(=O)[C@@H](NS(=O)(=O)c1ccc(Cl)s1)[C@H](C)CC(F)(F)F [Example 17, N-[(1S,2R)-1-Acetyl-4,4,4-trifluoro-2-methylbutyl]-5-chlorothiophene-2-sulfonamide] | 3.6 | –
17 | – | C[C@H](CC(F)(F)F)[C@H](NS(=O)(=O)c1ccc(Cl)s1)C(C)(C)O [Example 18, 5-Chloro-N-[(1S,2R)-4,4,4-trifluoro-1-(1-hydroxy-1-methylethyl)-2-methylbutyl]thiophene-2-sulfonamide] | 2.9 | –
18 | – | O=S(=O)(NC(CO)CC(F)(F)F)c1ccc(Cl)s1 (stereo not shown) [Example 40, 5-chloro-(3,3,3-trifluoro-1-hydroxymethyl-propyl)-thiophene-2-sulfonamide] | 3.8 | –
19 | – | C[C@@H](O)[C@@H](NS(=O)(=O)c1ccc(Cl)s1)C(C(F)(F)F)C(F)(F)F [Example 41, 5-Chloro-N-[(1S)-3,3,3-trifluoro-1-[(1R)-1-hydroxyethyl]-2-(trifluoromethyl)propyl]thiophene-2-sulfonamide] | 6.2 | –

Row | SMILES | RRA data: fold increase of APPI (luciferase activity over diluent control) [1] | fold induction at 20 µg/mL [1] | further results
20 | O=S(=O)(NC(CO)C(C(F)(F)F)C(F)(F)F)c1ccc(Cl)s1 (stereo not shown) [Example 4, 5′-Chloro-N-[3,3,3-trifluoro-2-(trifluoromethyl)-1-(hydroxymethyl)propyl]thiophene-2′-sulfonamide] | 3.7 fold increase | – | –
